≈ marks a conversion by molar mass, not a printed value. Where “and” joins values, the source holds several entries; their conditions need not be identical. Equal values may be shown once. Read-outs that look alike come from different tables or passages of the source.
Experiments:
[1] = Toxicity evaluation incl. nerve toxicity, 28 days of dosing, rats; type: in vivo; conditions: 28 days of dosing followed by 6 week off dose period
Procedure: (§1) Studies were conducted to evaluate toxicity, including additional endpoints investigating nerve toxicity of Compound A after 28 days of dosing followed by a 6 week off dose period in rats and monkeys.

HBV HBsAg [2] = test: HBsAg reduction in HBV infected primary human hepatocytes (ELISA); type: cell-based; conditions: Hepatitis B virus, Hepatocyte
Procedure: The potency (pIC50) of Compound A for reduction of HBV HBsAg was investigated in primary human hepatocytes (PHH) from three donors. HBV infected PHH samples were treated with Compound A for 21 days and secreted HBsAg was measured using an ELISA assay to determine the % inhibition and average potency of the replicates (two per PHH donor).
(§2) The antiviral activity of Compound A was evaluated in in vitro HBV systems: (1) HepAD38, a hepatoma cell line with inducible expression of HBV, (2) primary human hepatocytes (PHHs) infected with HBV, and in vivo in infected male C57BL/6 mice with AAV-HBV. Overall there is a correlation between in vitro potency (HepAD38 & PHHs) and AAV-HBV in vivo model HBsAg inhibition.

PAPD5 = PAPD5 (Homo sapiens, UniProt Q8NDF8); test: PAPD5 A15 RNA SPA biochemical assay
PAPD5, sequence (Q8NDF8 whole entry): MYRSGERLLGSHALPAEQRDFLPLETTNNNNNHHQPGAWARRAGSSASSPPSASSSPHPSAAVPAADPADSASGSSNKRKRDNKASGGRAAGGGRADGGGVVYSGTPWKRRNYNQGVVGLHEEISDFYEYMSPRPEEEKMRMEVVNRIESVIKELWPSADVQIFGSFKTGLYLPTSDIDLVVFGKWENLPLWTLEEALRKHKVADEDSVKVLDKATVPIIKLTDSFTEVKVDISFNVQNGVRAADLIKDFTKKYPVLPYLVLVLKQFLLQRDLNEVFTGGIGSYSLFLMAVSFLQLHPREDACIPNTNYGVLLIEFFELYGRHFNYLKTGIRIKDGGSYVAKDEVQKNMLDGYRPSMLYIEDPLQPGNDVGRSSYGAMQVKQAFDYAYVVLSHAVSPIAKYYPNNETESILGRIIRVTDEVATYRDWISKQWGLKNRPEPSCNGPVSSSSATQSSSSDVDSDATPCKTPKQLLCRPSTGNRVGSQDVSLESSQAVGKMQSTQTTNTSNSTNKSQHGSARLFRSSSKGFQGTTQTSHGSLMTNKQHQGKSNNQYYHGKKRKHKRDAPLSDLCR
Procedure: (§3) Dose-response studies were conducted for Compound A and RG7834 in the PAPD5 and PAPD7 A15 RNA SPA formats. Four different batches of Compound A and two different batches of RG7834 were used in both assays. Reactions contained 5 uM ATP, 0.0025 uCi/uL 3H-ATP, 50 nM A15 RNA, 10 nM enzyme in assay buffer (20 mM Tris 7.5, 3 mM CHAPS, 0.05% dBSA, 10 mM MgCl2, 1 mM DTT, 25 mM KCl). Reaction product was detected using SPA bead mix, final concentrations were 1 mg/mL PEI-PS, 1.25 mM ATP, 11.25 mM EDTA. End point signal detection correlated with slopes of reaction time courses. Curve fitting was performed using 4-parameter fitting in ActivityBase software.

AAV-HBV [3] = test: AAV-HBV mouse model, mono-treatment; type: in vivo, male C57BL/6 mice; conditions: for HBsAg reduction: within one week of treatment, sustained
Procedure: After 28 days of infection with AAV-HBV, mono-treatment of the infected male C57BL/6 mice with either Compound A or bepirovirsen was initiated. […] HBsAg reduction for the 3 and 30 mg/kg Compound A dose groups was close to 1 log and 1 log, respectively, within one week of treatment and reduction levels were sustained throughout the duration of the treatment period. […] The maximum observed reduction in HBeAg was 0.5 log at 30 mg/kg Compound A. There was a small reduction (0.26 to 0.40 log) in HBV DNA at the 3 and 30 mg/kg Compound A dose levels when compared to the combined vehicle group. […]

AAV-HBV [4] = test: AAV-HBV mouse model, sequential treatment; type: in vivo, male C57BL/6 mice; conditions: 30 mg/kg Compound A alone
Source text: After 35 days of infection with AAV-HBV, sequential treatment of the infected male C57BL/6 mice began first with Compound A followed by bepirovirsen.
[…], reductions in HBsAg was observed, reaching a maximum reduction of over 1 log and nearly 2 logs, respectively, by the second week. This reduction was statistically significant when compared to the combined vehicle group.

[5] = tested on: primary human hepatocytes (PHH); test: Visual examination for cell toxicity in PHH; type: cell-based; conditions: HBV infected PHH, 21 days treatment
HBV HBsAg [6] = test: HBsAg reduction in HepAD38 cell line (HBsAg ELISA); type: cell-based, hepatitis B virus (HBV); conditions: Hepatitis B virus; for EC50: HePAD38, 168 h, read-out: HBsAg (EC50)
Procedure: HepAD38 cells were maintained in collagen-coated flasks in cell culture medium (DMEM/F12 containing 10% fetal bovine serum (FBS), GlutaMax-1, penicillin/streptomycin, non-essential amino acids, Na pyruvate, 250 μg/mL geneticin, and 1 μg/mL doxycycline). Compound solutions were prepared in DMSO and compounds were serially diluted for final concentrations of 4000, 1000, 250, 62.5, 15.6, 3.91, 0.977, 0.244, 0.061, and 0.015 nM. The cells were then trypsinized and the cells were plated at 10,000 cells per well. Plates were incubated at 37° C., 5% CO2 for 4 days. Media was replaced with new media with compound treatment. The plates were then incubated at 37° C., 5% CO2 for an additional 3 days for a total treatment time of 7 days. For antiviral response, HBsAg was measured using the HBsAg ELISA kit (International Immuno-diagnostics) with instructions provided. 100 μL of cell media samples was used for ELISA. The absorbance was read on the SPECTRAMAX 384 plate reader (Molecular Devices) at 450 nm. For cell toxicity, the cells were used for CELLTITER-GLO Luminescent Cell Viability Assay reagent (Promega). The luminescence was read on Envision Multilabel Reader (Perkin Elmer). The data was analyzed compared to the DMSO control.
% inhibition=(1−(unknown/high control))*100
The average % inhibition values from duplicate assay plates were then plotted in GraphPad Prism to determine one EC value: Four-parameter logistic curve with equation Y=Bottom+(Top-Bottom)/(1+10^((Log EC50−X)*Hillslope))
as §2

PAPD7 = PAPD7 (Homo sapiens, UniProt Q5XG87); test: PAPD7 A15 RNA SPA biochemical assay; conditions: 10 nM enzyme, 5 uM ATP, 50 nM A15 RNA; read-out: average pIC50 PAPD7 (converted)
PAPD7, sequence (Q5XG87 whole entry): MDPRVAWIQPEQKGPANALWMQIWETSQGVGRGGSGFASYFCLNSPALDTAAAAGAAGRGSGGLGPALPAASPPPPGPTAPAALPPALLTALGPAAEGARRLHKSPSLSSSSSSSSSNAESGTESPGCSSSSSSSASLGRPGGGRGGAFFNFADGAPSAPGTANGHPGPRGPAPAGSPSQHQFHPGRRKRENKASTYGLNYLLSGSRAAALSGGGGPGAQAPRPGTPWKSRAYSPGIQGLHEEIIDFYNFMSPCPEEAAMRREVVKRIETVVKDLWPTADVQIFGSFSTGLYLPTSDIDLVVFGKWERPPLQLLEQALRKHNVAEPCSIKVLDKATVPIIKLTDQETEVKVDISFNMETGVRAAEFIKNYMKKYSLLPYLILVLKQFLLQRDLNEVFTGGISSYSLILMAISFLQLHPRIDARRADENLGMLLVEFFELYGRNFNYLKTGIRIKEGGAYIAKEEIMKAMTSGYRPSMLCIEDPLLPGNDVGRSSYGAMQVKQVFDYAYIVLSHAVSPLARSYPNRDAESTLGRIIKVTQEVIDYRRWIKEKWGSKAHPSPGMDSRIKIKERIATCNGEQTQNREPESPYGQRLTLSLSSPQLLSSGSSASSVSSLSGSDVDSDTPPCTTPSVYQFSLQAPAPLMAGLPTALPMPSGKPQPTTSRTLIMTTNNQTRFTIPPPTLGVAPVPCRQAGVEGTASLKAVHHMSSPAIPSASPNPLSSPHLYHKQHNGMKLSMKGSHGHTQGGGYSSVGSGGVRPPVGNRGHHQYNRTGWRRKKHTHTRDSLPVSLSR
Procedure: as §3

[7] = Toxicity evaluation incl. nerve toxicity, 28 days of dosing, monkeys; type: in vivo; conditions: 28 days of dosing followed by 6 week off dose period
Procedure: as §1

[8] = preclinical; terminated in Phase 1 clinical trials due to toxicity; cited from earlier work

Question: Which “no adverse effect dose” value [1] does the source give for `COCCCOc1cc2c(nc1Cl)-c1cc(=O)c(C(=O)O)cn1[C@H]1[C@@H]2CCC1(C)C` [Compound A] here?
Answer: No adverse effect doses were established

Question: What about the IC50 (HBV HBsAg [2]) of the same molecule?
Answer: 0.00095 µg/mL and 2.19 nM

Question: And the IC50 (HBV HBsAg [2]; 504 h, read-out: average pIC50 for reduction of HBV HBsAg (converted))?
Answer: 0.832 nM

Question: And the IC90 (HBV HBsAg [2]; read-out: Calculated IC90)?
Answer: 8.55 ng/mL (≈ 0.0198 µM)

Question: And the IC50 (PAPD5; 10 nM enzyme, 5 uM ATP, 50 nM A15 RNA, read-out: average pIC50 PAPD5 (converted))?
Answer: 12.6 nM

Question: And the “more potent than RG7834 by” value (PAPD5; PAPD5 and PAPD7 assays (FIG. 2))?
Answer: > 0.5 log

Question: And the “reduction in HBsAg” value (AAV-HBV [3]; Compound A 0.3 mg/kg, over the course of treatment)?
Answer: minimal reduction in HBsAg

Question: And the “HBsAg reduction compared to the combined vehicle group” value (AAV-HBV [3]; Compound A 3 mg/kg or 30 mg/kg)?
Answer: statistically significant HBsAg reduction

Question: And the HBsAg reduction (AAV-HBV [3]; Compound A 3 mg/kg)?
Answer: ~1 log

Question: And the “maximum observed reduction in HBeAg” value (AAV-HBV [3]; Compound A 30 mg/kg)?
Answer: 0.5 log

Question: What about the HBsAg reduction (AAV-HBV [3]; Compound A 30 mg/kg) of the same molecule?
Answer: 1 log

Question: What about the HBsAg levels off-treatment (AAV-HBV [3]; Compound A, following one week off-treatment) of the same molecule?
Answer: rebounded to baseline

Question: And the IC50 (AAV-HBV [3]; Mus musculus)?
Answer: 5.8e-05 µg/mL and 0.13 nM

Question: And the IC90 (AAV-HBV [3]; Mus musculus, read-out: Calculated IC90)?
Answer: 0.522 ng/mL (≈ 0.00121 µM)

Question: And the “effect on levels of HBeAg” value (AAV-HBV [3]; during treatment with Compound A, stabilized after day 7, rebounded within one week after end)?
Answer: dose dependent reduction

Question: And the HBsAg off-treatment (AAV-HBV [4]; within one week off-treatment)?
Answer: rebounded to baseline

Question: What about the “reduction in HBsAg” value (AAV-HBV [4]; within one week, stable up to 28 days, statistically significant) of the same molecule?
Answer: ~1 log

Question: What about the “cell toxicity (visual examination)” value [5] of the same molecule?
Answer: no detected sign of cell toxicity

Question: And the IC50 (HBV HBsAg [6]; HePAD38)?
Answer: 0.00056 µg/mL and 1.3 nM

Question: And the EC50 (HBV HBsAg [6])?
Answer: 0.3 nM

Question: And the IC90 (HBV HBsAg [6]; HePAD38, read-out: Calculated IC90)?
Answer: 5.04 ng/mL (≈ 0.0116 µM)

Question: And the IC50 (PAPD7)?
Answer: 20 nM

Question: What about the “no adverse effect dose” value [7] of the same molecule?
Answer: No adverse effect doses were established

Question: For `Cc1cc2c(cc1OCC1COC1)CC1(CCC1)n1cc(C(=O)O)c(=O)cc1-2` [Compound B, reference compound], which EC50 (HBV HBsAg [6]) is on record?
Answer: 3 nM

Question: With `COCCCOc1cc2c(cc1OC)-c1cc(=O)c(C(=O)O)cn1[C@H](C(C)C)C2` [RG7834, reference compound] as the molecule, how does the “no adverse effect dose” value [8] read?
Answer: no adverse effect dose could not be established

Question: What about the EC50 (HBV HBsAg [6]) of the same molecule?
Answer: 2 nM

— US20250092401A1, “COMBINATION THERAPY FOR TREATING HEPATITIS B VIRUS INFECTIONS” (GLAXOSMITHKLINE INTELLECTUAL PROPERTY DEVELOPMENT LIMITED, priority 2022, published 2025)
